Columns and labels:
human CSNK1D = target: T1, human CSNK1D (Homo sapiens, UniProt P48730); assay: Whole Cell nBRET CSNK1D Binding Assay; conditions: living CHO cells stably expressing human CSNK1D tagged with nanoluciferase; NanoBret tracer 130 nM; 2 hours at 37 C
T1 construct: expressed in transfected cells

[1] = target: T2, human recombinant GST cleaved CSNK1D (Homo sapiens, UniProt P48730); assay: Purified Enzyme Assay (ADP-Glo CSNK1D Kinase Assay); assay type: biochemical; conditions: 2 nM CSNK1D; peptide substrate 150 μM; ATP 20 μM; 45 minutes at room temperature
T2 construct: GST (cleaved yes); purchased University of Dundee clone DU 19064
T2 sequence (P48730 whole entry): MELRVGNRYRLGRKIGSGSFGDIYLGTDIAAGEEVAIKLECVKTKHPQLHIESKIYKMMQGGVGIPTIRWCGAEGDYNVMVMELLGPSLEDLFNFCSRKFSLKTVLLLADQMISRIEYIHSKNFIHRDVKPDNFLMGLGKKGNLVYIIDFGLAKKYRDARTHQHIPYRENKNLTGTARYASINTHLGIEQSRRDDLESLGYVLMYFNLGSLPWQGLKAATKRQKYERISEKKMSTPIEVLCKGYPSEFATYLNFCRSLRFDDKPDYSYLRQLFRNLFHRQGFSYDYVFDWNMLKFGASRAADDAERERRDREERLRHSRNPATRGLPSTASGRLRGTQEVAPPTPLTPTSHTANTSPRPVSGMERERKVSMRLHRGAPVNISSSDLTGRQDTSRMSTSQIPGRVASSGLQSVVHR
Method in brief: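 Percent activity derived from ADP-Glo quantification of ADP produced. Reactions: compound dose-response with human recombinant GST-cleaved CSNK1D, ATP and substrate peptide PLSRTL-pS-VASLPGL, incubated 45 min at room temperature.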

T1 sequence (P48730 whole entry): as above

| SMILES | IC50 (human CSNK1D) [nM] | IC50 [1] [nM] |
| --- | --- | --- |
| CC(=O)Nc1cc(-c2c(-c3ccc(F)cn3)nn3c2CC[C@@H]2C[C@@H]23)ccn1 (stereo in doubt) [Example 341, N-(4-((5a*R,6a*S)-2-(5-Fluoropyridin-2-yl)-5,5a,6,6a-tetrahydro-4H-cyclopropa[e]pyrazolo[1,5-a]pyridin-3-yl)pyridin-2-yl)acetamide] | 24 | 2 |
| CC1(C)CCc2c(-c3ccnc(N)c3)c(-c3ccc(F)cn3)nn2C1 [Example 281, 4-[2-(5-Fluoro-2-pyridyl)-6,6-dimethyl-5,7-dihydro-4H-pyrazolo[1,5-a]pyridin-3-yl]pyridin-2-amine] | 54 | 4 |
| COCC1(F)CCc2c(-c3cc(C(F)F)nc4[nH]ncc34)c(-c3ccc(F)cn3)nn2C1 (single isomer, unassigned) [Example 307, (*R)-6-(Difluoromethyl)-4-[6-fluoro-2-(5-fluoro-2-pyridyl)-6-(methoxymethyl)-5,7-dihydro-4H-pyrazolo[1,5-a]pyridin-3-yl]-1H-pyrazolo[3,4-b]pyridine] | > 10000 | 183 |
| CNC(=O)c1cc(-c2c(-c3ccc(F)cn3)nn3c2COC(C)(C(F)(F)F)C3)ccn1 (stereo not drawn) [Example 175, 4-(2-(5-Fluoropyridin-2-yl)-6-methyl-6-(trifluoromethyl)-6,7-dihydro-4H-pyrazolo[5,1-c][1,4]oxazin-3-yl)-N-methylpicolinamide] | 3610 | 148 |
| Fc1ccc(-c2nn3c(c2-c2ccn4nccc4c2)OCCC3)nc1 [Example 440, 2-(5-Fluoropyridin-2-yl)-3-(pyrazolo[1,5-a]pyridin-5-yl)-6,7-dihydro-5H-pyrazolo[5,1-b][1,3]oxazine] | 516 | 44 |
| Fc1ccc(-c2nn3c(c2-c2ccnc4[nH]ncc24)CCC3)nc1 [Example 7, 4-[2-(5-Fluoro-2-pyridyl)-5,6-dihydro-4H-pyrrolo[1,2-b]pyrazol-3-yl]-1H-pyrazolo[3,4-b]pyridine] | 136 | 7 |
| C[C@H]1n2nc(-c3ccc(F)cn3)c(-c3ccnc4[nH]ncc34)c2COC1(C)C (single isomer, unassigned) [Example 173, (*R)-2-(5-Fluoropyridin-2-yl)-6,6,7-trimethyl-3-(1H-pyrazolo[3,4-b]pyridin-4-yl)-6,7-dihydro-4H-pyrazolo[5,1-c][1,4]oxazine] | 840 | 42 |
| CC1(C(F)(F)F)Cn2nc(-c3ccc(F)cc3)c(-c3ccn4nccc4c3)c2CO1 (single isomer, unassigned) [Example 413, (*S)-2-(4-Fluorophenyl)-6-methyl-3-(pyrazolo[1,5-a]pyridin-5-yl)-6-(trifluoromethyl)-6,7-dihydro-4H-pyrazolo[5,1-c][1,4]oxazine] | 75 | 27 |
| CCC(=O)Nc1cc(-c2c(-c3ccc(F)cn3)nn3c2OCC(C)(C)C3)ccn1 [Example 447, N-(4-(2-(5-Fluoropyridin-2-yl)-6,6-dimethyl-6,7-dihydro-5H-pyrazolo[5,1-b][1,3]oxazin-3-yl)pyridin-2-yl)propionamide] | 5 | 2 |
| Fc1ccc(-c2nn3c(c2-c2c(F)cnc4[nH]ncc24)CC[C@@H]2C[C@@H]23)nc1 (single isomer, unassigned) [Example 343, (5a*R,6a*S)-3-(5-Fluoro-1H-pyrazolo[3,4-b]pyridin-4-yl)-2-(5-fluoropyridin-2-yl)-5,5a,6,6a-tetrahydro-4H-cyclopropa[e]pyrazolo[1,5-a]pyridine] | 96 | 5 |
| C[C@@]1(CF)CCc2c(-c3c(F)cnc4[nH]ncc34)c(-c3ccc(F)cn3)nn2C1 (single isomer, unassigned) [Example 292, (*R)-5-Fluoro-4-[6-(fluoromethyl)-2-(5-fluoro-2-pyridyl)-6-methyl-5,7-dihydro-4H-pyrazolo[1,5-a]pyridin-3-yl]-1H-pyrazolo[3,4-b]pyridine] | 21 | 3 |
| Cc1cc(-c2c(-c3ccc(F)cn3)nn3c2COC(C)(C)C3)c2c(C)n[nH]c2n1 [Example 156, 3-(3,6-Dimethyl-1H-pyrazolo[3,4-b]pyridin-4-yl)-2-(5-fluoro-2-pyridyl)-6,6-dimethyl-4,7-dihydropyrazolo[5,1-c][1,4]oxazine] | 87 | 5 |
| CC1(C)Cn2nc(-c3ccc(F)cn3)c(-c3ccn4nccc4n3)c2CO1 [Example 387, 2-(5-Fluoropyridin-2-yl)-6,6-dimethyl-3-(pyrazolo[1,5-a]pyrimidin-5-yl)-6,7-dihydro-4H-pyrazolo[5,1-c][1,4]oxazine] | 760 | 30 |
| Fc1ccc(-c2nn3c(c2-c2ccnc4[nH]ncc24)CCC(F)(COC(F)F)C3)nc1 (single isomer, unassigned) [Example 314, (*S)-4-(6-((Difluoromethoxy)methyl)-6-fluoro-2-(5-fluoropyridin-2-yl)-4,5,6,7-tetrahydropyrazolo[1,5-a]pyridin-3-yl)-1H-pyrazolo[3,4-b]pyridine] | 14 | 4 |
| Cc1nc2[nH]ncc2c(-c2c(-c3ccc(F)cn3)nn3c2CC2(C3)CC2(F)F)c1F (single isomer, unassigned) [Example 264, (*S)-1′.1′-Difluoro-3-(5-fluoro-6-methyl-1H-pyrazolo[3,4-b]pyridin-4-yl)-2-(5-fluoro-2-pyridyl)spiro[4,6-dihydropyrrolo[1,2-b]pyrazole-5,2′-cyclopropane]] | 20 | 4 |
| CCn1ncc2cc(-c3c(-c4ccc(F)cn4)nn4c3CCC4)cnc21 [Example 223, 1-Ethyl-5-(2-(5-fluoropyridin-2-yl)-5,6-dihydro-4H-pyrrolo[1,2-b]pyrazol-3-yl)-1H-pyrazolo[3,4-b]pyridine] | 894 | 22 |

Now from value to compound:

| IC50 (human CSNK1D) [nM] | IC50 [1] [nM] | SMILES |
| --- | --- | --- |
| 2 | 1 | Cc1cc(-c2c(-c3ccc(F)cc3)nn3c2OCC2(CC2)C3)c2cn[nH]c2n1 [Example 461, 2′-(4-Fluorophenyl)-3′-(6-methyl-1H-pyrazolo[3,4-b]pyridin-4-yl)-5′H,7′H-spiro[cyclopropane-1,6′-pyrazolo[5,1-b][1,3]oxazine]] |
| 24 | 12 | Fc1ccc(-c2nn3c(c2-c2ccn4nccc4c2)OCC2(CC2)C3)cc1 [Example 466, 2′-(4-Fluorophenyl)-3′-(pyrazolo[1,5-a]pyridin-5-yl)-5′H,7′H-spiro[cyclopropane-1,6′-pyrazolo[5,1-b][1,3]oxazine]] |
| 2350 | 111 | Cc1cc(-c2c(-c3ccc(F)cn3)nn3c2COCC3(C)C)c2cn[nH]c2n1 [Example 123, 2-(5-Fluoro-2-pyridyl)-7,7-dimethyl-3-(6-methyl-1H-pyrazolo[3,4-b]pyridin-4-yl)-4,6-dihydropyrazolo[5,1-c][1,4]oxazine] |
| 5120 | 102 | [2H]C([2H])([2H])OC([2H])([2H])[C@@]1(F)CCc2c(-c3cc(C)nc4[nH]ncc34)c(-c3ccc(F)cn3)nn2C1 (single isomer, unassigned) [Example 313, (*R)-4-[6-[(Methoxy-d3)methyl-d2]-6-fluoro-2-(5-fluoro-2-pyridyl)-5,7-dihydro-4H-pyrazolo[1,5-a]pyridin-3-yl]-6-methyl-1H-pyrazolo[3,4-b]pyridine] |
| 206 | 27 | Cc1cc(-c2c(-c3ccc(Cl)cc3)nn3c2COCC3)c2cn[nH]c2n1 [Example 68, 2-(4-Chlorophenyl)-3-(6-methyl-1H-pyrazolo[3,4-b]pyridin-4-yl)-6,7-dihydro-4H-pyrazolo[5,1-c][1,4]oxazine] |
| 569 | 120 | Cc1cc(-c2c(-c3ccc(Cl)c(F)c3)nn3c2COCC3)c2cn[nH]c2n1 [Example 73, 2-(4-Chloro-3-fluoro-phenyl)-3-(6-methyl-1H-pyrazolo[3,4-b]pyridin-4-yl)-6,7-dihydro-4H-pyrazolo[5,1-c][1,4]oxazine] |
| 7 | 1 | Fc1ccc(-c2nn3c(c2-c2ccnc4[nH]nc(Cl)c24)OCC2(CC2)C3)nc1 [Example 458, 3′-(3-Chloro-1H-pyrazolo[3,4-b]pyridin-4-yl)-2′-(5-fluoropyridin-2-yl)-5′H,7′H-spiro[cyclopropane-1,6′-pyrazolo[5,1-b][1,3]oxazine]] |
| 2320 | 116 | Cc1cc(-c2c(-c3cncc(F)c3)nn3c2COCC3)c2cn[nH]c2n1 [Example 77, 2-(5-Fluoro-3-pyridyl)-3-(6-methyl-1H-pyrazolo[3,4-b]pyridin-4-yl)-6,7-dihydro-4H-pyrazolo[5,1-c][1,4]oxazine] |
| 48 | 2 | C[C@H]1Cn2nc(-c3ccc(F)cc3)c(-c3ccnc4[nH]ncc34)c2CO1 (single isomer, unassigned) [Example 81, (*)-2-(4-Fluorophenyl)-6-methyl-3-(1H-pyrazolo[3,4-b]pyridin-4-yl)-6,7-dihydro-4H-pyrazolo[5,1-c][1,4]oxazine] |
| 2480 | 46 | Cc1nc(-c2c(-c3ccc(F)cc3)nn3c2COC(C(F)(F)F)C3)c2cn[nH]c2n1 (single isomer, unassigned) [Example 377, (*S)-2-(4-Fluorophenyl)-3-(6-methyl-1H-pyrazolo[3,4-d]pyrimidin-4-yl)-6-(trifluoromethyl)-6,7-dihydro-4H-pyrazolo[5,1-c][1,4]oxazine] |
| 210 | 11 | Cc1cc(-c2c(-c3ncc(F)cc3F)nn3c2CCCC3)c2cn[nH]c2n1 [Example 37, 4-[2-(3,5-Difluoro-2-pyridyl)-4,5,6,7-tetrahydropyrazolo[1,5-a]pyridin-3-yl]-6-methyl-1H-pyrazolo[3,4-b]pyridine] |

— patent US20230339970A1, “CASEIN KINASE 1 DELTA MODULATORS” (priority 2020, published 2023)
